Reference: US20040219123A1, “Invert emulsions comprising DHEA” (GALDERMA RESEARCH & DEVELOPMENT, S.N.C., priority 2001, published 2004)

Legend:
[1] = cited from earlier work
[2] = Maximum solubility of DHEA in lipophilic excipients (12 h stirring with excess active, filtration, HPLC); format: physicochemical; settings: room temperature
Protocol: In Table 1 are various examples showing the low solubility of DHEA in a lipophilic phase:
These maximum solubilities of DHEA were measured after stirring for 12 h with a magnetic stirrer bar, at room temperature, with an excess of active ingredient in the excipient to be analyzed. The suspension is then filtered (1.2 μm) and then the filtrate is assayed by HPLC.
Above the concentration measured, there is recrystallization of the DHEA at room temperature.

In the case of C[C@]12CC[C@H](O)CC1=CC[C@@H]1[C@@H]2CC[C@]2(C)C(=O)CC[C@@H]12 [DHEA, 3-beta-hydroxyandrosteron-5-en-17-one], the “maximum solubility in water” value [1] is listed as 20 µg/mL, the “Solubility (% w/w)” value ([2]; in Caprylic/capric triglycerides) is listed as 1.77% w/w and the “Solubility (% w/w)” value ([2]; in Cetearyl isononanoate) is listed as 0.83% w/w. For the same molecule, the “Solubility (% w/w)” value ([2]; in Cyclomethicone) was 0.04% w/w, the “Solubility (% w/w)” value ([2]; in Dimethicone) was 0.17% w/w and the “Solubility (% w/w)” value ([2]; in Isopropyl palmitate) was 1.37% w/w. The “Solubility (% w/w)” value ([2]; in Mineral oil) was 1.00% w/w, the “Solubility (% w/w)” value ([2]; in Octyl palmitate) was 1.00% w/w and the “Solubility (% w/w)” value ([2]; in Sesame oil) was 1.40% w/w. For the same molecule, the “Solubility (% w/w)” value ([2]; in Squalane) was 0.10% w/w.
